The values that follow are results of earlier work, collected in patent US8784850B2, “Highly biocompatible dual thermogelling chitosan/glucosamine salt composition” (Oligo Médic Inc., priority 2010, dated 2014).

Each structure is given as a SMILES string. Bounds are passed on as bounds.

Series [1] relates to rats. The note with it: ingestion of 300 to 2149 mg/kg of body weight.
The test system of series [2] is rats. The note with it: rat, in vivo, po.
For the next series, the system named is mice. The note with it: mouse, in vivo, po.
Another series relates to dogs. The note with it: ingestion of 300 to 2149 mg/kg of body weight.
Series [3] has as its system human blood glucose metabolism. The note with it: human studies.
Series [4] relates to patients with osteoarthritis pain. The note with it: oral administration, more than 3000 patients.
Series [5] relates to rabbits. The note with it: rabbit, in vivo, po.
For series [6], the system named is outpatients with gonarthrosis.
For series [7], the system named is rabbits. The note with it: ingestion of 300 to 2149 mg/kg of body weight.
Setting [8] is: intra-articular, after treatment.
Setting [9] is: intra-articular, versus placebo.

Consider `N[C@H]1C(O)O[C@H](CO)[C@@H](O)[C@@H]1O` (stereo partly drawn) [glucosamine], for which the blood glucose levels result with rats [1], in the series on dogs and in the series on rabbits [7] was “no effect on blood glucose levels” in each case. Also, the values for the LD50 entry in the series on rats [2], with mice and in the series with rabbits [5] were “exceed 5000 mg/kg”, more than 8000 mg/kg and more than 8000 mg/kg, respectively. Besides, the “plasma levels of glucose or insulin, insulin sensitivity or glucose oxidation” value in series [3] is listed as “did not affect”. Besides, in series [4], the “adverse effects on blood, urine or fecal parameters” value was “no adverse effects”. Besides, the “effectiveness in treating osteoarthritis pain” value in [4] was “moderately to highly effective”. Besides, the “local or general intolerance symptoms” value in series [6] (during and after treatment) is on record as “no local or general intolerance symptoms”. Also, in [6] (setting [8]), the “angle of joint flexion” value was “substantially increased”. Besides, the knee swelling result in [6] (setting [8]) is given as “did not decrease significantly”. Further, the active mobility result in series [6] (setting [9]) is given as “a more favourable trend after glucosamine administration”. In series [6] (setting [9]), the pain-free patients entry was “significantly more pain-free patients”. Moreover, the pain entry in series [6] (one intra-articular injection per week for five weeks, versus placebo) is given as “reduced pain to a significantly greater extent than did placebo”.

As a reminder, the LD50 is the dose expected to kill half of the subjects tested.
